Results on 1 compound are retold here after ChEMBL document CHEMBL1141442, “Structure elucidation of a dihydropyranone from Tapinanthus dodoneifolius” (J Nat Prod, 2007).

The species named for the experiment is Rattus norvegicus. The experiment is described as follows: Vasorelaxant effect on norepinephrine induced-contraction in Wistar rat aortic rings. The format is functional, organism-based. The following applies: Aorta.

pIC50: −log10 of the molar value.

Usually pIC50 stands for the IC50 on a negative log10 scale, so that one unit is a factor of ten. A lower pIC50 goes with a high IC50.

The compound `O=C1C=CC[C@H](C[C@@H](O)CCc2ccc(O)cc2)O1` had a pIC50 of 4.09.
